# Reference: patent US20170349593A1, “BTK INHIBITORS” (MERCK SHARP & DOHME CORP., priority 2014, published 2017)
# Assays:
# [1] = target: T1, BTK enzyme (recombinant full-length BTK, hBTK) (Homo sapiens, UniProt Q06187); test: Btk enzyme activity assay (LANCE TR-FRET); assay type: biochemical; conditions: 50 pM hBTK, 25 μM ATP, 60 minute compound and enzyme incubation, concentration range 1 μM to 0.017 nM, read-out: BTK binding IC50
# T1 construct: recombinant protein from baculovirus-transfected S 19 cells: full-length BTK, 6 HIS-tag cleaved; 6 HIS-tag (cleaved yes); made in house
# T1 sequence (Q06187 whole entry): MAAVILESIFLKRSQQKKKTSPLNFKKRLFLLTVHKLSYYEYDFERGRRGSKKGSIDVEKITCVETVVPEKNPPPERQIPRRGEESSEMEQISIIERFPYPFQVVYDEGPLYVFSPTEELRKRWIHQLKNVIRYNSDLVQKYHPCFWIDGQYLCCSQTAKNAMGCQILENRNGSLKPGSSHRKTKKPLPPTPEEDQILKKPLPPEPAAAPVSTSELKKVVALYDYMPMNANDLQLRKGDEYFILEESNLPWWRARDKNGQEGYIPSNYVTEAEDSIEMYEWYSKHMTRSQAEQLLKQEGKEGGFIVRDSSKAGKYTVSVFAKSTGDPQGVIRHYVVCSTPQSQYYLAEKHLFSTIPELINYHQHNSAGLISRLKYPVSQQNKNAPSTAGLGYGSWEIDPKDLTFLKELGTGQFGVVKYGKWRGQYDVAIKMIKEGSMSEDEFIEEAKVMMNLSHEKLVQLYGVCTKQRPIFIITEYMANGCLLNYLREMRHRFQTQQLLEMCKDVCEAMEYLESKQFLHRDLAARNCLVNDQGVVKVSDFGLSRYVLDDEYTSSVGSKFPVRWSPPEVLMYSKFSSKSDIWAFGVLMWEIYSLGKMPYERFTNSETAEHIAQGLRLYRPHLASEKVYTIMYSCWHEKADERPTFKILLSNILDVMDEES
# [2] = tested on: adenosine uptake into HeLa cells; test: [3H]Adenosine uptake assay; assay type: cell-based; conditions: Homo sapiens; accumulation of [3H]adenosine into HeLa cells; concentration range 10 μM to 0.032 nM; read-out: ADU inhibition IC50
# Procedure: Compounds are also screened in an adenosine uptake functional cellular assay using the protocol described below:
# Adenosine uptake activity was determined by monitoring the accumulation of tritiated adenosine into HeLa cells (ATCC catalog #CCL-2) using a PMT-based radiometric detection instrument. In this assay, the potency (IC50) of each compound was determined from a ten point (1:3 serial dilution; final compound concentration range in assay from 10 μM to 0.032 nM) titration curve using the following outlined procedure. To each well of a 96-well CytoStar-T scintillating microplate (Perkin Elmer Catalog #RPNQ0163), 25 000 HeLa cells in 100 μL of growth medium comprising: Minimum Essential Media (Life Technologies Catalog #11095-080)+10% (v/v) foetal bovine serum (FBS; Sigma Aldrich Catalog #F2442) was added. These cells were incubated overnight at 37° C. in a humidified atmosphere with 5% (v/v) CO2. After this time the growth medium was removed and replaced with 40 μL assay medium comprising: Hanks balanced salts solution (HBSS; Thermo Fisher Catalog # SH30268.01)+5% (v/v) FBS. Compound stock solutions in DMSO were diluted in assay medium to 2.5× final compound concentration maintaining a constant DMSO concentration of 0.25% (v/v). 40 μL of compound in assay medium was dispensed into individual wells of the Cytostar-T plates and the plates were incubated for 30 minutes under ambient laboratory conditions. Following this incubation, 20 μL of 500 nM [^3H] adenosine (American Radiolabeled Chemicals Inc. Catalog #ART0287) in assay medium was added and incubated for a further 60 minutes under ambient laboratory conditions. The amount of radiolabel accumulation was then determined using a Perkin Elmer Topcount NXT microplate reader. In brief, HeLa cells adhere to the bottom of the Cytostar-T plate, uptake of [^3H]adenosine into these cells brings the radiolabel into sufficient proximity to excite the scintillant in the base of the plates. These events are captured by single PMT, time-resolved coincidence counting. IC50 values were determined by 4 parameter robust fit of counts per second values vs. (Log10)) compound concentrations.
Structure (SMILES),IC50 [1] [µM],IC50 [2] [µM]
"CCOc1cc(C(=O)Nc2cc(C(F)(F)F)ccn2)ccc1-c1nc([C@@H]2CC[C@H](C(F)(F)F)N(C(=O)C3CC3)C2)n2ccnc(N)c12 [Example 1, 4-{8-amino-3-[(3R,6R)-1-(cyclopropylcarbonyl)-6-(trifluoromethyl)piperidin-3-yl]imidazo[1,5-a]pyrazin-1-yl}-3-ethoxy-N-[4-(trifluoromethyl)pyridin-2-yl]benzamide]",0.347,0.918
"CCOc1cc(C(=O)Nc2cc(C(F)(F)F)ccn2)ccc1-c1nc([C@H]2CC[C@H](C(F)(F)F)N(C(=O)C3CC3)C2)n2ccnc(N)c12 [Example 2, 4-{8-amino-3-[(3S,6R)-1-(cyclopropylcarbonyl)-6-(trifluoromethyl)piperidin-3-yl]imidazo[1,5-a]pyrazin-1-yl}-3-ethoxy-N-[4-(trifluoromethyl)pyridin-2-yl]benzamide]",0.00138,0.918
"CCOc1cc(C(=O)Nc2cc(C(F)(F)F)ccn2)ccc1-c1nc([C@H]2CC[C@@H](C(F)(F)F)N(C(=O)C3CC3)C2)n2ccnc(N)c12 [Example 3, 4-{8-amino-3-[(3S,6S)-1-(cyclopropylcarbonyl)-6-(trifluoromethyl)piperidin-3-yl]imidazo[1,5-a]pyrazin-1-yl}-3-ethoxy-N-[4-(trifluoromethyl)pyridin-2-yl]benzamide]",1,0.859
"CCOc1cc(C(=O)Nc2cc(C(F)(F)F)ccn2)ccc1-c1nc([C@@H]2CC[C@@H](C(F)(F)F)N(C(=O)C3CC3)C2)n2ccnc(N)c12 [Example 4, 4-{8-amino-3-[(3R,6S)-1-(cyclopropylcarbonyl)-6-(trifluoromethyl)piperidin-3-yl]imidazo[1,5-a]pyrazin-1-yl}-3-ethoxy-N-[4-(trifluoromethyl)pyridin-2-yl]benzamide]",0.0394,1.06
"CCOc1cc(C(=O)Nc2cc(C(F)(F)F)n(C)n2)ccc1-c1nc([C@H]2CN(C(=O)C3CC3)[C@@H](C)CO2)n2c(Cl)cnc(N)c12 [Example 5, 4-{8-amino-5-chloro-3-[(2R,5S)-4-(cyclopropylcarbonyl)-5-methylmorpholin-2-yl]imidazo[1,5-a]pyrazin-1-yl}-3-ethoxy-N-[1-methyl-5-(trifluoromethyl)-1H-pyrazol-3-yl]benzamide]",0.00714,≥ 10
"CCOc1cc(C(=O)Nc2cc(C(F)(F)F)n(C)n2)ccc1-c1nc([C@H]2CN(C(=O)[C@H](C)O)[C@@H](C)CO2)n2c(Cl)cnc(N)c12 [Example 6, 4-(8-amino-5-chloro-3-{(2R,5S)-4-[(2S)-2-hydroxypropanoyl]-5-methylmorpholin-2-yl}imidazo[1,5-a]pyrazin-1-yl)-3-ethoxy-N-[1-methyl-5-(trifluoromethyl)-1H-pyrazol-3-yl]benzamide]",0.00573,≥ 10
"CCOc1cc(C(=O)Nc2cc(C(F)(F)F)ccn2)ccc1-c1nc([C@H]2CN(C(=O)C(C)C)[C@@H](C)CO2)n2c(Cl)cnc(N)c12 [Example 7, 4-{8-amino-5-chloro-3-[(2R,5S)-5-methyl-4-(2-methylpropanoyl)morpholin-2-yl]imidazo[1,5-a]pyrazin-1-yl}-3-ethoxy-N-[4-(trifluoromethyl)pyridin-2-yl]benzamide]",0.00167,≥ 10
"CCOc1cc(C(=O)Nc2cc(C(F)(F)F)ccn2)ccc1-c1nc([C@H]2CN(C(=O)C3CC3)[C@@H](C)CO2)n2c(Cl)cnc(N)c12 [Example 8, 4-{8-amino-5-chloro-3-[(2R,5S)-4-(cyclopropylcarbonyl)-5-methylmorpholin-2-yl]imidazo[1,5-a]pyrazin-1-yl}-3-ethoxy-N-[4-(trifluoromethyl)pyridin-2-yl]benzamide]",0.00119,≥ 10
"CCc1cnc(N)c2c(-c3ccc(C(=O)Nc4cc(C(F)(F)F)ccn4)cc3OC)nc([C@H]3CN(C(=O)C4CC4)[C@@H](C)CO3)n12 [Example 9, 4-{8-amino-3-[(2R,5S)-4-(cyclopropylcarbonyl)-5-methylmorpholin-2-yl]-5-ethylimidazo[1,5-a]pyrazin-1-yl}-3-methoxy-N-[4-(trifluoromethyl)pyridin-2-yl]benzamide]",0.00376,2.68
"C=Cc1cnc(N)c2c(-c3ccc(C(=O)Nc4cc(C(F)(F)F)ccn4)cc3OC)nc([C@H]3CN(C(=O)C4CC4)[C@@H](C)CO3)n12 [Example 10, 4-{8-amino-3-[(2R,5S)-4-(cyclopropylcarbonyl)-5-methylmorpholin-2-yl]-5-ethenylimidazo[1,5-a]pyrazin-1-yl}-3-methoxy-N-[4-(trifluoromethyl)pyridin-2-yl]benzamide]",0.000528,1.2
"CCOc1cc(C(=O)Nc2cc(C(F)(F)F)ccn2)ccc1-c1nc([C@H]2CN(C(=O)[C@@H](C)O)[C@@H](C)CO2)n2c(Cl)cnc(N)c12 [Example 11, 4-(8-amino-5-chloro-3-{(2R,5S)-4-[(2R)-2-hydroxypropanoyl]-5-methylmorpholin-2-yl}imidazo[1,5-a]pyrazin-1-yl)-3-ethoxy-N-[4-(trifluoromethyl)pyridin-2-yl]benzamide]",0.00142,3.12
"CCOc1cc(C(=O)Nc2cc(C(F)(F)F)ccn2)ccc1-c1nc([C@H]2CN(C(=O)C3(C)CC3)[C@@H](C)CO2)n2c(Cl)cnc(N)c12 [Example 12, 4-(8-amino-5-chloro-3-{(2R,5S)-5-methyl-4-[(1-methylcyclopropyl)carbonyl]morpholin-2-yl}imidazo[1,5-a]pyrazin-1-yl)-3-ethoxy-N-[4-(trifluoromethyl)pyridin-2-yl]benzamide]",0.0011,≥ 10
"COc1cc(C(=O)Nc2cc(C(F)(F)F)ccn2)ccc1-c1nc([C@H]2CN(C(=O)[C@H](C)OC)[C@@H](C)CO2)n2c(Cl)cnc(N)c12 [Example 13, 4-(8-amino-5-chloro-3-{(2R,5S)-4-[(2S)-2-methoxypropanoyl]-5-methylmorpholin-2-yl}imidazo[1,5-a]pyrazin-1-yl)-3-methoxy-N-[4-(trifluoromethyl)pyridin-2-yl]benzamide]",0.00389,1.71
"COc1cc(C(=O)Nc2cc(C(F)(F)F)ccn2)ccc1-c1nc([C@H]2CN(C(=O)[C@@H](C)O)[C@@H](C)CO2)n2c(Cl)cnc(N)c12 [Example 14, 4-(8-amino-5-chloro-3-{(2R,5S)-4-[(2R)-2-hydroxypropanoyl]-5-methylmorpholin-2-yl}imidazo[1,5-a]pyrazin-1-yl)-3-methoxy-N-[4-(trifluoromethyl)pyridin-2-yl]benzamide]",0.00204,1.69
"COCC(=O)N1C[C@H](c2nc(-c3ccc(C(=O)Nc4cc(C(F)(F)F)ccn4)cc3F)c3c(N)nccn23)OC[C@H]1CO [Example 56, 4-{8-amino-3-[(2R,5R)-5-(hydroxymethyl)-4-(methoxyacetyl)morpholin-2-yl]imidazo[1,5-a]pyrazin-1-yl}-3-fluoro-N-[4-(trifluoromethyl)pyridin-2-yl]benzamide]",0.00881,
"CS(=O)(=O)CC(=O)N1C[C@H](c2nc(-c3ccc(C(=O)Nc4cc(C(F)(F)F)ccn4)cc3F)c3c(N)nccn23)OC[C@H]1CO [Example 58, 4-(8-amino-3-{(2R,5R)-5-(hydroxymethyl)-4-[(methylsulfonyl)acetyl]morpholin-2-yl}imidazo[1,5-a]pyrazin-1-yl)-3-fluoro-N-[4-(trifluoromethyl)pyridin-2-yl]benzamide]",0.00692,
"C[C@H](O)C(=O)N1C[C@H](c2nc(-c3ccc(C(=O)Nc4cc(C(F)(F)F)ccn4)cc3F)c3c(N)nccn23)OC[C@H]1CO [Example 59, 4-(8-amino-3-{(2R,5R)-5-(hydroxymethyl)-4-[(2S)-2-hydroxypropanoyl]morpholin-2-yl}imidazo[1,5-a]pyrazin-1-yl)-3-fluoro-N-[4-(trifluoromethyl)pyridin-2-yl]benzamide]",0.0122,
"C[C@H]1CO[C@@H](c2nc(-c3ccc(C(=O)Nc4cc(C(F)(F)F)ccn4)cc3F)c3c(N)nccn23)CN1C(=O)C1CC1 [Example 86, 4-{8-amino-3-[(2R,5S)-4-(cyclopropylcarbonyl)-5-methylmorpholin-2-yl]imidazo[1,5-a]pyrazin-1-yl}-3-fluoro-N-[4-(trifluoromethyl)pyridin-2-yl]benzamide]",,0.246
"CNC(=O)N1C[C@H](c2nc(-c3ccc(C(=O)Nc4cc(C(F)(F)F)ccn4)c(F)c3)c3c(N)nccn23)CC[C@@H]1C [Example 94, (2S,5R)-5-[8-amino-1-(3-fluoro-4-{[4-(trifluoromethyl)pyridin-2-yl]carbamoyl}phenyl)imidazo[1,5-a]pyrazin-3-yl]-N,2-dimethylpiperidine-1-carboxamide]",0.000374,
